Molecules are shown by their SMILES.

The nature of the series: Solubility of the OSC small molecule and binder in aromatic hydrocarbon and further solvents. The class given is physicochemical. The source says: The aromatic hydrocarbon solvent of the multi-solvent formulation is capable of dissolving at least 0.5% by weight of the polycrystalline small molecule of the present invention, more preferably greater than 1%.
The further (subsidiary) solvent(s) are preferably less solubilising of the polycrystalline small molecule and typically dissolve less than 0.2% by weight of the small molecule OSC, more preferably less than 0.1% by weight, more preferably less than 0.05% by weight.
Preferably, the semiconducting binder of the invention is essentially insoluble in the further solvent.

With `CC[Si](C#Cc1c2cc3c(C)ccc(C)c3cc2c(C#C[Si](CC)(CC)CC)c2cc3c(C)ccc(C)c3cc12)(CC)CC` [1,4,8,11-tetramethyl, 6,13-bis-(triethylsilylethynyl)pentacene], the Solubility was 1.4% w/v (in 2-Bromomesitylene); 3.5% w/v (in Bromobenzene); less than 0.1% (in Cyclohexane); roughly 1% w/v (in Mesitylene); “Insol” (in Methyl ethyl ketone (MEK)); “Insol” (in Propan-2-ol). Further, the Solubility is listed as 0.6% w/v (in Tetralin), less than 0.1% (in n-Heptane) and less than 0.1% (in n-Octane).

Values taken from patent publication US20160359116A1, “Organic Semiconductor Formulations” (SMARTKEM LIMITED, priority 2012, published 2016).
